Like-named read-outs stand apart in the source and are kept apart here.
Tests used:
[1] = system: Carrageenin-induzierte Rattenpfotenödem; assay: Carrageenin-induced rat paw oedema (acute inflammation model); assay type: in vivo, Ratte
Procedure: Zur Prüfung der entzündungshemmenden Wirkung dieser Substanz wird das Modell des Carrageenin-induzierten Rattenpfotenödems herangezogen, ein allgemein anerkanntes Modell zur Ermittlung anhand einer akuten Entzündung. Die entzündungshemmende Wirkung von vakuumgetrockneten und lyophilisierten Extrakten ist in Abb. 1 wiedergegeben. Bei der Anwendung von vakuumgetrocknetem Blattextrakt von Epilobium angustifolium wurde eine Dosis von 72 mg/kg Ratte, für sprühgetrockneten Blattextrakt eine Dosis von 136,47 mg/kg Ratte und für lyophilisierten Blattextrakt eine Dosis von 16,4 mg/kg Ratte eingesetzt. Das Ausmaß der entzündungswirkenden von vakuumgetrockneten und lyophilisierten Extrakten der in Abbildung 1 aufgezeigten Konzentrationen entspricht ca. 1 bis 2 mg Indometacin/kg Ratte.
Der Einfluß auf das Carrageenin-induzierte Rattenpfotenödem geht aus den Kurven in den Abbildungen 2 und 3 hervor. Abbildung 2 stellt unterschiedliche Dosen von HIMAK einander gegenüber, Abb. 3 dient dem Vergleich von HIMAK einer bestimmten Dosis mit einem wässrigen Auszug von Epilobium und Indometacin. Der Darstellung des Einflusses der erfindungsgemäßen Substanz auf die Prostaglandin-Biosynthese am pharmakologischen Modell nach ISAKSON, modifiziert nach JUAN und SAMETZ am perfundierten Kaninchenohr sowie mittels Radioimmunoassay (RIA) dienen die Abbildungen 4 und 5.

PG-Biosynthese = assay: Prostaglandin biosynthesis in the perfused rabbit ear (labelled arachidonic acid, metabolites separated by TLC; RIA); assay type: cell-based, Kaninchen; settings: for inhibition at 1 µg/mL: Oryctolagus cuniculus, read-out: hemmen die Biosynthese von PGI₂ und PGE₂
Excerpt: Methode: Perfundiertes Kaninchenohr mit C-Arachidonsäure, Vormarkierung und Messung der radioaktiven Metalboliten mittels Auftrennung durch DC. • 2.

Magenschleimhaut = assay: Preliminary examination of gastric mucosa damage after peroral dosing; assay type: in vivo; settings: 1 mg/kg, preliminary examinations
Excerpt: Es ist gesicherte Erkenntnis, daß Cyclooxygenase-Hemmer, also Hemmer der Biosynthese von Prostaglandinen, wie etwa Indo, die Magenschleimhaut schädigen können. […] Im Ergebnis liefern diese Untersuchungen einen Hinweis auf die wesentlich günstiger zu beurteilende Frage der Toxizität von HIMAK.

Compound	Dosisbereich, der das Carrageenin-Pfotenödem ähnlich stark reduziert wie 1 mg/kg Indomethacin (p.o.) ([1]; compared with 1 mg/kg Indomethacin p.o.)	Hemmung der experimentellen akuten Entzündung (Rattenpfotenödem mit Carrageenin) (in words) ([1]; dose-dependent)	Wirksamkeit im Vergleich mit der Referenzsubstanz Indo auf Gewichtsbasis (in words) ([1]; first experiments, weight basis)	so wirksam wie Indo, auf geschätzter Molekulargewichtsbasis ([1]; potency relative to Indo, estimated molecular weight basis) [mal]	so wirksam wie Indo, auf Gewichtsbasis ([1]; potency relative to Indo, weight basis) [mal]	inhibition at 1 µg/mL (PG-Biosynthese; 1 »g/ml (Endkonzentration) Indo, ca. 1 »g/ml HIMAK, perfused rabbit ear) [%]	Hemmung der Biosynthese von Prostaglandinen (in words) (PG-Biosynthese; dose-dependent)	Hemmung der PG-Biosynthese im Vergleich mit Indo (in words) (PG-Biosynthese; weight basis, similar concentration as Indo (Abb. 4))	Bildung kleiner Erosionen in der Magenschleimhaut (Magenschleimhaut)	inhibition at 1 µg/mL (PG-Biosynthese) [%]
O=C(O)[C@H]1O[C@@H](Oc2c(-c3cc(O)c(O)c(O)c3)oc3cc(O)cc(O)c3c2=O)[C@H](O)[C@@H](O)[C@@H]1O [HIMAK, Myricetin-3-0-β-D-glucuronid]	40 - 200 »g/kg KG	deutlich hemmen	wesentlich wirksamer	~5	≥ 10	> 80	deutlich hemmen	in etwa gleichem Ausmaß gehemmt	nicht der Fall	
COc1ccc2c(c1)c(CC(=O)O)c(C)n2C(=O)c1ccc(Cl)cc1 [Indo, Indometacin, reference compound]									Bildung kleiner Erosionen in der Magenschleimhaut	> 80

— patent EP0377127B1, “Use of Myricetin-3-O-beta-D glucuronide as medicament” (Plantamed Arzneimittel GmbH, priority 1989, dated 1990)
